Assay results as given in ChEMBL document CHEMBL1135462, “Novel selective phosphodiesterase (PDE4) inhibitors. 4. Resolution, absolute configuration, and PDE4 inhibitory activity of cis-tetra- and cis-hexahydrophthalazinones” (J Med Chem, 2002).

Key:
[1] = tested on: Mus musculus; assay: Percent inhibition of arachidonic acid induced mouse ear edema after 30 uM/kg peroral pretreatment; type: functional
[2] = biological target: Phosphodiesterase 4 (Homo sapiens, UniProt P27815+Q08499+Q07343+Q08493); assay: Inhibitory activity against phosphodiesterase 4 carried out in the cytosol of human neutrophils; type: protein assay

Row | Structure (SMILES) | Log IC50 [2] | Inhibition [1] [%]
1 | COc1ccc([C@]2(C#N)CC[C@@H](C(=O)O)CC2)cc1OC1CCCC1 [CILOMILAST] |  | 33
2 | COc1ccc(C2=NNC(=O)C3CCCCC23)cc1OC1CCCC1 (centres undefined) | -6.8 | 
3 | COc1ccc(C2=NNC(=O)[C@@H]3CC=CC[C@H]23)cc1OC (relative stereo) | -7.3 | 
4 | COc1ccc(C2=NNC(=O)[C@H]3CCCC[C@@H]23)cc1OC1CCCC1 | -5.8 | 
5 | CCOc1ccc(C2=NN(c3ccc(C(=O)O)cc3)C(=O)[C@@H]3CC=CC[C@H]23)cc1OCC | -8.3 | 47
6 | COc1ccc(C2=NNC(=O)C3CC=CCC23)cc1OC1CCCC1 (centres undefined) | -7.1 | 
7 | COc1ccc(C2=NNC(=O)C3CC=CCC23)cc1OC (racemic) | -7 | 
8 | COc1ccc(C2CNC(=O)C2)cc1OC1CCCC1 (single isomer, unassigned; (-)) [ROLIPRAM] |  | 55
9 | COc1ccc([C@H](Cc2ccncc2)c2ccccc2)cc1OC1CCCC1 [CDP840] | -7.7 | 48
10 | COc1ccc(C2=NNC(=O)[C@H]3CC=CC[C@@H]23)cc1OC1CCCC1 | -6.7 | 
11 | COc1ccc(C2=NNC(=O)[C@H]3CCCC[C@@H]23)cc1OC | -5.1 | 
12 | COc1ccc(C2=NNC(=O)C3CCCCC23)c2c1OC1(CCCC1)C2 (racemic) | -7.3 | 
13 | CCOC(=O)c1ccc(N2N=C(c3ccc(OCC)c(OCC)c3)[C@H]3CC=CC[C@H]3C2=O)cc1 | -8.2 | 27
14 | COc1ccc(C2=NN(C3C4CC5CC(C4)CC3C5)C(=O)C3CC=CCC23)cc1OC (racemic) | -9.2 | 51

Now from value to compound, other results behind:

Row | Log IC50 [2] | Structure (SMILES) | Inhibition [1] [%]
15 | -8 | CCOC(=O)c1ccc(N2N=C(c3ccc(OCC)c(OCC)c3)C3CC=CCC3C2=O)cc1 (racemic) | 
16 | -6.6 | COc1ccc(C2=NNC(=O)[C@H]3CC=CC[C@@H]23)c2c1OC1(CCCC1)C2 | 
17 | -8.5 | COc1ccc(C2=NNC(=O)[C@@H]3CC=CC[C@H]23)c2c1OC1(CCCC1)C2 | 
18 | -7.8 | COc1ccc(C2=NNC(=O)[C@@H]3CCCC[C@H]23)c2c1OC1(CCCC1)C2 | 
19 | -6.9 | COc1ccc(C2=NN(C3C4CC5CC(C4)CC3C5)C(=O)[C@H]3CC=CC[C@@H]23)cc1OC (single isomer, unassigned; (-)) | 
20 | -7.7 | CCOc1ccc(C2=NN(c3ccc(C(=O)O)cc3)C(=O)C3CC=CCC23)cc1OCC (racemic) | 48
21 | -8 | COc1ccc(C2=NNC(=O)C3CC=CCC23)c2c1OC1(CCCC1)C2 (racemic) | 
22 | -6.9 | COc1ccc(C2=NNC(=O)[C@@H]3CCCC[C@H]23)cc1OC (relative stereo) | 
23 | -6.1 | COc1ccc(C2=NNC(=O)[C@H]3CC=CC[C@@H]23)cc1OC | 
24 | -9.3 | COc1ccc(C2=NN(C3C4CC5CC(C4)CC3C5)C(=O)[C@@H]3CC=CC[C@H]23)cc1OC (single isomer, unassigned; (+)) | 49
25 | -6.4 | COc1ccc(C2=NNC(=O)C3CCCCC23)cc1OC (centres undefined) | 
26 | -5.6 | COc1ccc(C2=NNC(=O)[C@H]3CCCC[C@@H]23)c2c1OC1(CCCC1)C2 | 
27 | -7.1 | COc1ccc(C2=NNC(=O)[C@@H]3CCCC[C@H]23)cc1OC1CCCC1 (relative stereo) | 
28 | -7.4 | COc1ccc(C2=NNC(=O)[C@@H]3CC=CC[C@H]23)cc1OC1CCCC1 (relative stereo) | 
